Assay results from ChEMBL document CHEMBL1133920, “Novel 4-piperidinopyridine inhibitors of oxidosqualene cyclase-lanosterol synthase derived by consideration of inhibitor pK(a)” (Bioorg Med Chem Lett, 2001).

What was measured:
[1] = system: Rattus norvegicus; test: Percent reduction in food intake was determined after oral administration of 50 mg/kg in rat after 24 hours; assay type: functional
[2] = pKa was determined; assay type: physicochemical
[3] = biological target: T1, Lanosterol synthase (Rattus norvegicus) (UniProt P48450); test: Percent inhibition of rat microsomal oxidosqualene cyclase-lanosterol synthase (OSC) at 100 nM
T1 sequence (whole entry): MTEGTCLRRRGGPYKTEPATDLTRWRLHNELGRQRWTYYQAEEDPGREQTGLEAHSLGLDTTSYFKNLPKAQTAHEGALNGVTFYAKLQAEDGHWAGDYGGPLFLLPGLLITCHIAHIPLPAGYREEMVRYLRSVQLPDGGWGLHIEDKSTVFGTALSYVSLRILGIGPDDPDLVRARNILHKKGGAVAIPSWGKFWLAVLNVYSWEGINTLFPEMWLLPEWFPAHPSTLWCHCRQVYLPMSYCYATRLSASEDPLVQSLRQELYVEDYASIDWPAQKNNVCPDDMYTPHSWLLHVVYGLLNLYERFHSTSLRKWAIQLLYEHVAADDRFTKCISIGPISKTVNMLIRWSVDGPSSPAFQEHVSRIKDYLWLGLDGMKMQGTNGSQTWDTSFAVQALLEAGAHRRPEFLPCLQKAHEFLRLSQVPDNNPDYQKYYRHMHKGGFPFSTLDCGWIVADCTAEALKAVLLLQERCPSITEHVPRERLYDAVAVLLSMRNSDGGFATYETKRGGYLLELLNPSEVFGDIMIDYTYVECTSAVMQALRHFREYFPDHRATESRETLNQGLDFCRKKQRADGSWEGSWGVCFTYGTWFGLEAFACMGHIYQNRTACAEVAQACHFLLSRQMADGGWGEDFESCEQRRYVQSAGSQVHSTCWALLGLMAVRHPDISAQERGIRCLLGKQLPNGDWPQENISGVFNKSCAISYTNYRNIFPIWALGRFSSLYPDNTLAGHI

[4] = species on record: Rattus norvegicus; test: Effective dose for the 50% inhibition of rat cholesterol biosynthesis; assay type: functional
[5] = species on record: Rattus norvegicus; test: Effective dose for the 80% inhibition of rat cholesterol biosynthesis; assay type: functional
[6] = system: Rattus norvegicus; test: Percent feeding effect was determined after oral administration of 100 mg/kg in rat; assay type: functional
[7] = system: Rattus norvegicus; test: Percent reduction in food intake was determined after oral administration of 100 mg/kg in rat after 24 hours
[8] = Concentration for the inhibition of rat microsomal oxidosqualene cyclase-lanosterol synthase (OSC)

SMILES | inhibition [3] [%] | ED50 [4] [mg/kg] | ED80 [5] [mg/kg] | further results
O=C(C1CCN(c2ccncc2)CC1)N1CCN(S(=O)(=O)c2ccc(Br)cc2)CC1 |  |  |  | Reduction [1]: 64%
O=C(C1CCN(c2ccncc2F)CC1)N1CCN(S(=O)(=O)c2ccc(C(F)(F)F)cc2)CC1 | 100 | 0.4 | 1 | pKa [2]: 6.7
O=C(N1CCC(c2ccncc2)CC1)N1CCN(S(=O)(=O)c2ccc(Br)cc2)CC1 | 94 | 0.4 | 1.8 | Effect [6]: 23%
O=C(c1ccc(C(F)(F)F)cc1)N1CCC(=Cc2ccc(C3=NCCO3)cc2)CC1 |  |  |  | Reduction [7]: 15%
O=C(C1CCN(c2ccncn2)CC1)N1CCN(S(=O)(=O)c2ccc(Br)cc2)CC1 |  | 0.4 |  | Reduction [7]: 17%
O=C(N1CCC(c2ccncc2)CC1)N1CCN(S(=O)(=O)c2ccc(Cl)cc2)CC1 | 91 | 1.7 | 3.6 | pKa [2]: 5.8
O=C(N1CCN(c2ccncc2Cl)CC1)N1CCN(S(=O)(=O)c2ccc(Cl)cc2)CC1 | 87 | 0.6 | 1.4 | pKa [2]: 5.8; Effect [6]: 14%
O=C(c1ccc(Cl)cc1)c1ccc(OC2CN3CCC2CC3)cc1 (stereo not given) |  |  |  | IC50 [8]: 0.058 µM
O=C(C1CCN(S(=O)(=O)c2ccc(Br)cc2)CC1)N1CCC(c2ccncc2)CC1 | 100 | 0.5 | 4.7 | 

More lines, main results first:

inhibition [3] [%] | SMILES | ED50 [4] [mg/kg] | ED80 [5] [mg/kg] | further results
100 | O=C(N1CCN(c2ccncc2Cl)CC1)N1CCN(S(=O)(=O)c2ccc(C(F)(F)F)cc2)CC1 | 0.2 | 0.7 | 
100 | O=C(N1CCN(c2ccncc2Cl)CC1)N1CCN(S(=O)(=O)c2ccc(F)cc2)CC1 | 1.1 | 2.3 | 
89 | O=C(C1CCN(c2ccncc2Br)CC1)N1CCN(S(=O)(=O)c2ccc(Br)cc2)CC1 | 0.5 |  | 
100 | O=C(N1CCN(c2ccncc2Cl)CC1)N1CCN(S(=O)(=O)c2ccc(Br)cc2)CC1 | 1.1 | 2.3 | 
97 | O=C(N1CCC(c2ccncc2)CC1)N1CCN(S(=O)(=O)c2ccc(F)cc2)CC1 | 0.5 |  | 
47 | O=C(C1CCN(c2ncncc2Br)CC1)N1CCN(S(=O)(=O)c2ccc(Br)cc2)CC1 | > 2 |  | 
